Entries after “also recorded” stand apart in the source; their conditions may differ.
Tests used:
ICR male mice [1] = assay: Evaluation of activity to improve learning and/or memory using Morris water maze; type: in vivo
Procedure: Evaluation of Activity to Improve Learning and/or Memory Using Morris Water Maze
In experiments, ICR male mice of 6 weeks old were used. Using Morris water maze as an experiment apparatus, ability of learning and memory of space was evaluated based on the latency until a mouse escapes to a platform arranged in a pool as an index. One trial was maximally 120 seconds, and 1 session was composed of three trials in which each mouse was made to swim in the pool from three different positions. Average time needed for the escape was calculated and evaluation was made based thereon. On the first day (the first session), no drug and nothing were administered. From the second session (Day 2), Compound 1, Compound 8 or a solvent was administered. Trial was repeated for 5 days (5 sessions).
The dose of Compound 1 was 10, 30 or 100 μg/kg, and the dose of Compound 8 was 100 μg/kg. Compound 1, Compound 8 or saline which was the solvent was subcutaneously administered 30 minutes before the first trial of each session. The data was subjected to analysis of variance and significance was evaluated according to Fisher's PLSD test. The cases where P<0.05 was evaluated as significant.

ICR male mice [2] = assay: Test of learning of Step-Down type passive avoidance (MK-801-induced learning disability and memory disorder); type: in vivo; settings: test 24 hours after training, FIG. 2
Procedure: In experiments, ICR male mice of 6 weeks old were used. The experiment apparatus comprised a plastic box sizing 25×25×30 cm (width×depth×height), a stainless steel grid for giving electrical shock, which was laid on the floor of the box, and a wooden platform sizing 4.5×4.5×3.0 cm (width×depth×height) placed on a corner on the floor grid.
Sixty minutes before the training trial, 100 or 300 μg/kg of Compound 1, or its solvent, saline, was subcutaneously administered. Thirty minutes later, 0.1 mg/kg of MK-801 which is a non-competitive antagonist of NMDA receptor, which is a compound that causes learning disability and/or memory disorder was intraperitoneally administered. Training trial was carried out by placing a mouse on the platform, and the time period until the mouse stepped down to the floor grid, that is, the Step-Down latency, was measured. Simultaneously with the attaching all of the feet of the mouse to the floor, an electrical shock of 0.6 mA was given for 2 seconds, thereby making the mouse to learn that an electrical shock would be given if the mouse would stepped down to the floor.
Test trials were carried out 24 hours after the training trials. Each mouse was again placed on the platform, and the Step-Down latency was measured for maximally 300 seconds.

[3] = test system: patients suffering from dementia; settings: cited from earlier work

## CN1CC[C@@]2(c3cccc(O)c3)Cc3nc4c(Br)cc(Br)cc4cc3C[C@@H]2C1 [Compound 8, (+)-7,9-dibromo-4a-(3-hydroxyphenyl)-2-methyl-1,2,3,4,4a,5,12,12a-octahydro-quinoline[2,3 g]isoquinoline]
ICR male mice [1]; Compound 8 100 μg/kg subcutaneously 30 minutes before first trial of each session, vs saline, FIG. 3
  latency required for escaping to the platform; ability of learning and memory of space: shortened

## C[C@]12N[C@H](Cc3ccccc31)c1ccccc12 [MK-801]
ICR male mice [2]; MK-801 alone 0.1 mg/kg i.p., vs control group (solvent alone)
  Step-Down latency in test trials (passive avoidance reaction): significantly shorter than that of the control group; also recorded: significantly suppressed

## Nc1c2c(nc3ccccc13)CCCC2 [tacrine]
[3]; clinical use
  side effects: hepatic toxicity and choline-related side effects
[3]; dementia patients
  improvement of intellectual function in cases in which the drug is administered: improvement of intellectual function to a certain degree is observed in about half of the cases

## COc1cc2c(cc1OC)C(=O)C(CC1CCN(Cc3ccccc3)CC1)C2 (stereo not shown) [Aricept]
[3]; dementia in light to medium degree
  improvement in patients suffering from dementia: improvement is observed in about half cases

## CN1CC[C@@]2(c3cccc(O)c3)Cc3nc4ccccc4cc3C[C@H]2C1 [Compound 1, (4aR, 12aR)-2-methyl-4a-(3-hydroxyphenyl)-1,2,3,4,4a,5,12,12a-octahydro-quinoline[2,3-g]isoquinoline]
ICR male mice [1]; Compound 1 10, 30 or 100 μg/kg subcutaneously 30 minutes before first trial of each session, sessions 2-5, vs saline, FIG. 1
  time period (latency) required for escaping to the platform; ability of learning and memory of space: shortened dose-dependently from the second session; also recorded: ability of learning and memory of space was improved
ICR male mice [2]; Compound 1 100 or 300 μg/kg s.c. 60 min before training, MK-801 0.1 mg/kg i.p. 30 min later, vs MK-801 alone
  Step-Down latency in test trials: reversal of the shortening by MK-801: significantly reduced; also recorded: recovered

Source: patent publication US6803366B2, “Agent for improving learning or memory” (Toray Industries, Inc., priority 1999, dated 2004)
